Patent US8557855B2, “Methods of using ryanodine antagonists in treating neural injury” (Allergan, Inc., priority 2002, dated 2013)

How the values were obtained:
retinal ganglion cells [1] = assay: NMDA-induced injury of retinal ganglion cells in vivo in rabbits (cell count at RGC layer); details: rabbit
Description: (§1) To evaluate in vivo neuroprotective effects of dantrolene (DTL) on NMDA-induced injury of RGCs an imaging method to count cell numbers at the RGC layer in the isolated retinas was developed. Briefly, two weeks following intravitreal injection of vehicle or various test agents, a rabbit was euthanized and the treated eye was enucleated. A piece of retina (8 mm in diameter) was cut immediately below the optic nerve head, flat-mounted in a plastic chamber filled with HEPES-buffered Ames medium, and imaged at 25 fields in a 5×5 array with a 40× water immersion objective using an Olympus microscope (BX50WI) equipped with an epi-fluorescence unit. The images were taken with a Hamamatsu C4742-95 digital camera and Image-Pro Plus software (V4.5). The total number of neurons at the ganglion cell layer in these 25 fields was counted. The same measurements were conducted in one control group (rabbits treated with vehicle) and 4 test groups treated with 1) NMDA, 2) dantrolene+NMDA, 3) veratridine (Verat) a neurotoxin that damages retinal ganglion cells with intracellular sodium overload, and 4) dantrolene+veratridine. The results from the 4 test groups are normalized with respect to that of control.

retinal ganglion cells [2] = assay type: in vivo; details: rabbit, intravitreal injection, two weeks after injection, normalized to vehicle control
Description: as §1

retinal ganglion cells [3] = details: cited from earlier work

CN[C@H](CC(=O)O)C(=O)O [NMDA]
loss of cells at the RGC layer caused by NMDA alone (retinal ganglion cells [1]; intravitreal injection, two weeks after injection, normalized to vehicle control): 53%

O=C1CN(N=Cc2ccc(-c3ccc([N+](=O)[O-])cc3)o2)C(=O)N1 [dantrolene, 1-[[5-(p-Nitrophenyl)furfurylidene]amino]hydantoin]
cell loss caused by veratridine with dantrolene (retinal ganglion cells [2]; veratridine alone 56%): 50%
neuroprotective effect on NMDA-induced damage to ganglion cells (FIG. 1) (retinal ganglion cells [1]; intravitreal injection of NMDA): ameliorated NMDA-induced damage to ganglion cells
NMDA-induced cell death at the RGC layer after pretreatment with dantrolene (retinal ganglion cells [1]; intravitreal injection, two weeks after injection, normalized to vehicle control, NMDA alone 53%): 35%

CC12CC3CC(C)(C1)CC(N)(C3)C2 [memantine]
effect on RGC loss in glaucomatous monkeys (retinal ganglion cells [3]): ameliorates RGC loss

COc1ccc(C(=O)O[C@H]2CC[C@@]3(C)[C@@H]4CC[C@H]5[C@]6(O)C[C@H](O)[C@@]7(O)[C@@H](CN8C[C@@H](C)CC[C@H]8[C@@]7(C)O)[C@]6(O)C[C@@]53O[C@]24O)cc1OC [veratridine]
cell loss at the RGC layer caused by veratridine alone (retinal ganglion cells [2]): 56%
